Key:
[1] = UV absorption (molar extinction coefficient); type: physicochemical
[2] = test system: Propionibacterium acnesMTCC 1951; assay: Minimum growth inhibitory concentration; type: cell-based, Propionibacterium acnes
Text: (§1) The doubly quaternized UV absorbers of Formula I (R═C8H17 to C22H45) according to the invention show decent antimicrobial properties. The minimum growth inhibitory concentrations against G +ve, G −ve bacteria and against the yeast for two compounds of Formula I of Example 3 and Example 4 are given in the Table III. This antimicrobial property is useful for preservation of personal care formulations. The antimicrobial activity against dandruff causing microorganism, Malassezia furfur is useful for hair care applications.

[3] = test system: Candida albicans ATCC 10231; assay: Minimum growth inhibitory concentration; type: cell-based
Text: as §1

[4] = test system: Malassezia furfur MTCC 1374; assay: Minimum growth inhibitory concentration; type: cell-based
Text: as §1

[5] = test system: Pseudomonas aeruginosa Immune type IV; assay: Minimum growth inhibitory concentration; type: cell-based
Text: as §1

[6] = test system: Staphylococcus aureus ATCC6538; assay: Minimum growth inhibitory concentration; type: cell-based
Text: as §1

[7] = test system: Escherichia coli ATCC 10142; assay: Minimum growth inhibitory concentration; type: cell-based
Text: as §1

[8] = Zeta potential (Zetasizer Nano, Malvern) and charge density; type: physicochemical; conditions: for Zeta potential: 1% dispersion
Text: Zeta potential of 1% dispersion of doubly quaternized UV absorber, Formula I, R═C18H37 and R1═OCH3 is found to be […] (Zetasizer Nano, Malvern). […] Also the high zeta potential (+46 mV) ensures the stability of colloidal formulations.
Molar extinction coefficient, ∈, in water: 19,700 mol^−1cm^−1 at 307 nm. Zeta potential: +46 mV, Charge density: 0.3066 meq/gram

[9] = Surface-active properties (surface tension of water, CMC); type: physicochemical
Method: They reduce the surface tension of water from 72 Mn/m to 35 Mn/m at 1.0% concentration, at 30° C. These quaternized UV absorbers behave like cationic surface active agents and can be easily titrated against an anionic surfactant as a standard for two-phase titration for the determination of active matter.
Critical micelle concentration at 25° C. is 2.29×10^−3 mM

SMILES | minimum growth inhibitory concentration [2] [%] | minimum growth inhibitory concentration [3] [%] | minimum growth inhibitory concentration [4] [%] | minimum growth inhibitory concentration [5] [%] | minimum growth inhibitory concentration [6] [%] | minimum growth inhibitory concentration [7] [%] | further results
COc1ccc(C=CC(=O)NCCCN(C)C)cc1 [Example 1, p-methoxycinnamido propyldimethylamine] |  |  |  |  |  |  | Molar extinction coefficient, ∈ ([1]; in methanol, at 290 nm): 24,224
COc1ccc(C=CC(=O)NCCC[N+](C)(C)CC(O)C[N+](C)(C)C)cc1.[Cl-].[Cl-] (stereo not shown) [Example 2, p-methoxy cinnamidopropyl (2-hydroxypropyl trimethyl ammonium chloride) dimonium chloride] |  |  |  |  |  |  | Molar extinction coefficient, ∈ ([1]; in water, at 290 nm): 22,000 mol^−1cm^−1
CCCCCCCCCCCC[N+](C)(C)CC(O)C[N+](C)(C)CCCNC(=O)C=Cc1ccc(OC)cc1.[Cl-].[Cl-] (stereo not shown) [Example 3, p-methoxy cinnamidopropyl (2-hydroxypropyl lauryl dimethyl ammonium chloride) dimonium chloride] | 0.5 | 0.3 | 0.5 | 0.4 | 0.3 | 0.4 | Molar extinction coefficient, ∈ ([1]; in water, at 305 nm): 19,500 mol^−1cm^−1
CCCCCCCCCCCCCCCCCC[N+](C)(C)CC(O)C[N+](C)(C)CCCNC(=O)/C=C/c1ccc(OC)cc1 (stereo not shown) [Example 4, p-methoxy cinnamidopropyl (2-hydroxypropyl stearyl dimethyl ammonium chloride) dimonium chloride] | 0.4 | 0.3 | 0.6 | 0.4 | 0.2 | 0.3 | Charge density [8]: 0.3066 meq/gram; Zeta potential [8]: +46 mV; Zeta potential ([8]; listed as Formula I, R═C18H37 and R1═OCH3): +47 mV; Surface effectiveness [9]: 34.2 mN/m; surface efficiency (−log C20) [9]: 6.23; Critical micelle concentration ([9]; at 25° C.): 0.00229 mM; Molar extinction coefficient, ∈ ([1]; in water, at 307 nm): 19,700 mol^−1cm^−1

From patent publication US10758467B2, “Highly substantive water-soluble UV absorbers and process for preparation thereof” (GALAXY SURFACTANTS LTD., priority 2018, dated 2020)
